The results in this text go back to article PMC8234244, “Virtual Evolution of HVEM Segment for Checkpoint Inhibitor Discovery” (International Journal of Molecular Sciences, 2021).

T1: BTLA-Fc (Homo sapiens, UniProt Q7Z6A9)
T1 construct: Fc
T1 sequence (Q7Z6A9 31-157 limits assumed): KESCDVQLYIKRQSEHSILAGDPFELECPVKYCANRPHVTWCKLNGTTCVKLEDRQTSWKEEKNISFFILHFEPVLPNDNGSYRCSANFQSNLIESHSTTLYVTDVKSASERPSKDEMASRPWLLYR

T2: recombinant BTLA-Fc protein (B and T lymphocyte attenuator) (UniProt Q7Z6A9 31-137)
T2 construct: B and T lymphocyte attenuator (BTLA); source: recombinant
T2 sequence: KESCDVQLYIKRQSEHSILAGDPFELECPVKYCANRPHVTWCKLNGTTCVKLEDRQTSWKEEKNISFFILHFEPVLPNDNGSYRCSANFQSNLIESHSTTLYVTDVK

B1: DP2 E27P E38F (peptide)
peptide: Ac-KPACGELTGTVCF-NH2
modifications: cysteine pairing not given here
notes: HVEM residues 26-38 with E27P and E38F; source: synthetic peptide (SPPS, Fmoc; Jiangsu Shenlang Biotech)
B2: DP2-E1 (peptide)
peptide: Ac-YRVKPACGELTGTVCFP-NH2
modifications: cysteine pairing not given here
notes: HVEM residues 23-39 with the DP2 mutations E27P and E38F; also called extended DP2 (17 aa); source: synthetic peptide (SPPS, Fmoc; Jiangsu Shenlang Biotech)
B3: DP2-E2 (peptide)
peptide: Ac-ESCPKCSPGYRVKPACGELTGTVCFP-NH2
modifications: cysteine pairing not given here
notes: HVEM residues 14-39 with the DP2 mutations E27P and E38F; also called extended DP2 (26 aa); source: synthetic peptide (SPPS, Fmoc; Jiangsu Shenlang Biotech)

Residues, ends and D or L forms follow the SMILES beside them.

For the first experiment, the system named is BTLA/HVEM binding (BTLA-Fc coated, HVEM-biotin). Briefly: Competitive ELISA, peptides against Biotin-HVEM for BTLA. As to conditions: 1 mg/mL peptide, 12 h at room temperature; peptides with response value under 85% of the control were selected; absorbance 630 nm. From the text: Though computational methods provided certain guidelines for picking the mutations, they are not 100% accurate since simplified models were used, like ignoring the possible conformation changes caused by mutations. Thus, the wet-lab examination is necessary to confirm their inhibition effects. The library containing predicted peptides was synthesized by solid phase peptide synthesis (SPPS) method with Fmoc strategy. We used competitive ELISA for the screen to ensure the positive peptides selectively binds in situ on the BTLA/HVEM interface. Biotin-HVEM was used as the signal reporter. Peptides with strong binding of BTLA will compete with Biotin-HVEM and result in lower signal. A primary screen was carried out by using 1 mg/mL of each peptide and those with response value under 85% of the control were selected for further characterization (Figure 2a).
96-well EIA/RIA plates (High Binding, Corning Incorporated) were coated with 350 ng/well of recombinant BTLA-Fc protein in PBS (50 µL/well), incubating at 37 °C overnight until the solutions evaporate completely. Methanol was added for protein fixation and the wells were blocked with 5% BSA in PBS (200 µL/well). The peptides in DMSO were diluted into 1 mg/mL in PBS (50 µL/well) and incubated 12 h at room temperature. Wells were washed six times with PBST (phosphate buffer saline with 0.1% Tween-20, pH 7.4). Different concentrations of recombinant HVEM-biotin protein (50 µL/well) was added and incubated for 2 h at room temperature. Wells were washed six times with PBS. Horseradish peroxidase (HRP) labeled Streptavidin was finally added at a 1/5000 dilution in PBS and incubated for 2 h at room temperature. 3, 3′, 5, 5′,-tetramethylbenzidine (TMB, Beyotime) was used for color development. The absorbance was read at 630 nm using Microplate Reader. Statistical analysis of the results was performed using GraphPad Prism 7 software.
Take “Ac-KPACGELTGTVCE-NH2 [SP3, single mutant E27P of HVEM (26–38)]”: the “Inhibition in preliminary competitive ELISA screen” value is “showed inhibition”. For the molecule “Ac-KEACGELPGTVCE-NH2 [SP7, single mutant T33P of HVEM (26–38)]”, the “Inhibition in preliminary competitive ELISA screen” value was “showed inhibition”.

On to “Ac-KEACGDLTGTVCE-NH2 [SP6, single mutant E31D of HVEM (26–38)]”, for which the “Inhibition in preliminary competitive ELISA screen” value is “showed inhibition”.

Regarding `CC(=O)N[C@@H](CCCCN)C(=O)N1CCC[C@H]1C(=O)N[C@@H](C)C(=O)N[C@@H](CS)C(=O)NCC(=O)N[C@@H](CCC(=O)O)C(=O)N[C@@H](CC(C)C)C(=O)N[C@H](C(=O)NCC(=O)N[C@H](C(=O)N[C@H](C(=O)N[C@@H](CS)C(=O)N[C@@H](Cc1ccccc1)C(N)=O)C(C)C)[C@@H](C)O)[C@@H](C)O` [DP2] (Ac-KPACGELTGTVCF-NH2), the “Inhibition in preliminary competitive ELISA screen” value is on record as “showed inhibition”. For “Ac-KKACGELTGTVCF-NH2 [DP3, double mutant E27K E38F of HVEM (26–38)]”, the “Inhibition in preliminary competitive ELISA screen” value is “showed inhibition”.

Staying with this experiment, now noted: competitive ELISA, dose dependent; 1 mg/mL peptide, HVEM-biotin titrated; qualitative comparison.
On to `CC(=O)N[C@@H](CCC(=O)O)C(=O)N[C@@H](CO)C(=O)N[C@@H](CS)C(=O)N1CCC[C@H]1C(=O)N[C@@H](CCCCN)C(=O)N[C@@H](CS)C(=O)N[C@@H](CO)C(=O)N1CCC[C@H]1C(=O)NCC(=O)N[C@@H](Cc1ccc(O)cc1)C(=O)N[C@@H](CCCNC(=N)N)C(=O)N[C@H](C(=O)N[C@@H](CCCCN)C(=O)N1CCC[C@H]1C(=O)N[C@@H](C)C(=O)N[C@@H](CS)C(=O)NCC(=O)N[C@@H](CCC(=O)O)C(=O)N[C@@H](CC(C)C)C(=O)N[C@H](C(=O)NCC(=O)N[C@H](C(=O)N[C@H](C(=O)N[C@@H](CS)C(=O)N[C@@H](Cc1ccccc1)C(=O)N1CCC[C@H]1C(N)=O)C(C)C)[C@@H](C)O)[C@@H](C)O)C(C)C` [DP2-E2] (Ac-ESCPKCSPGYRVKPACGELTGTVCFP-NH2), for which the “Inhibition of BTLA/HVEM binding, titration of peptide-BTLA with different concentrations of HVEM” value is listed as “higher affinity than the native ones”.

Take “Ac-KEACGELTGTVCE-NH2 [P0, reference compound]”: the “Inhibition of BTLA/HVEM binding, titration of peptide-BTLA with different concentrations of HVEM” value was “demonstrated little inhibition”. `CC(=O)N[C@@H](CCC(=O)O)C(=O)N[C@@H](CO)C(=O)N[C@@H](CS)C(=O)N1CCC[C@H]1C(=O)N[C@@H](CCCCN)C(=O)N[C@@H](CS)C(=O)N[C@@H](CO)C(=O)N1CCC[C@H]1C(=O)NCC(=O)N[C@@H](Cc1ccc(O)cc1)C(=O)N[C@@H](CCCNC(=N)N)C(=O)N[C@H](C(=O)N[C@@H](CCCCN)C(=O)N[C@@H](CCC(=O)O)C(=O)N[C@@H](C)C(=O)N[C@@H](CS)C(=O)NCC(=O)N[C@@H](CCC(=O)O)C(=O)N[C@@H](CC(C)C)C(=O)N[C@H](C(=O)NCC(=O)N[C@H](C(=O)N[C@H](C(=O)N[C@@H](CS)C(=O)N[C@@H](CCC(=O)O)C(=O)N1CCC[C@H]1C(N)=O)C(C)C)[C@@H](C)O)[C@@H](C)O)C(C)C` [P0-E2, reference compound] (Ac-ESCPKCSPGYRVKEACGELTGTVCEP-NH2; N-terminus and C-terminus assumed): the “Inhibition of BTLA/HVEM binding, titration of peptide-BTLA with different concentrations of HVEM” value is “more potency than P0”. For the molecule `CC(=O)N[C@@H](CCCCN)C(=O)N1CCC[C@H]1C(=O)N[C@@H](C)C(=O)N[C@@H](CS)C(=O)NCC(=O)N[C@@H](CCC(=O)O)C(=O)N[C@@H](CC(C)C)C(=O)N[C@H](C(=O)NCC(=O)N[C@H](C(=O)N[C@H](C(=O)N[C@@H](CS)C(=O)N[C@@H](Cc1ccccc1)C(N)=O)C(C)C)[C@@H](C)O)[C@@H](C)O` [DP2] (Ac-KPACGELTGTVCF-NH2), the “Inhibition of BTLA/HVEM binding, titration of peptide-BTLA with different concentrations of HVEM” value is listed as “showed the best inhibitory effects”. Consider `CC(=O)N[C@@H](Cc1ccc(O)cc1)C(=O)N[C@@H](CCCNC(=N)N)C(=O)N[C@H](C(=O)N[C@@H](CCCCN)C(=O)N1CCC[C@H]1C(=O)N[C@@H](C)C(=O)N[C@@H](CS)C(=O)NCC(=O)N[C@@H](CCC(=O)O)C(=O)N[C@@H](CC(C)C)C(=O)N[C@H](C(=O)NCC(=O)N[C@H](C(=O)N[C@H](C(=O)N[C@@H](CS)C(=O)N[C@@H](Cc1ccccc1)C(=O)N1CCC[C@H]1C(N)=O)C(C)C)[C@@H](C)O)[C@@H](C)O)C(C)C` [DP2-E1] (Ac-YRVKPACGELTGTVCFP-NH2), for which the “Inhibition of BTLA/HVEM binding, titration of peptide-BTLA with different concentrations of HVEM” value was “higher affinity than the native ones”.

In another experiment the target is T1, BTLA-Fc. Nature of the experiment: Surface plasmon resonance (SPR), binding of peptides to BTLA. As to conditions: qualitative statement in running text. The procedure:
The SPR assay was conducted using Biacore T100 system with Sensor Chip CM5 (Cytiva, Marlborough, MA, USA). BTLA-Fc was conjugated to the chips with EDC/NHS coupling in NaAc buffer. The assay was performed in PBS buffer with 2% DMSO. The buffer calibration was conducted by mixing different volume of buffers with 1.5% or 2.8% DMSO. Various concentrations of the peptides were injected and flow through the chip at 30 µL/min. The signals were recorded and analyzed with either static (for fast dissociation) or kinetic (for slow dissociation) model.
Regarding “Ac-KEACGELTGTVCE-NH2 [P0, reference compound]”, the “Binding to BTLA in words” value was “can barely bind to BTLA”. For `CC(=O)N[C@@H](Cc1ccc(O)cc1)C(=O)N[C@@H](CCCNC(=N)N)C(=O)N[C@H](C(=O)N[C@@H](CCCCN)C(=O)N1CCC[C@H]1C(=O)N[C@@H](C)C(=O)N[C@@H](CS)C(=O)NCC(=O)N[C@@H](CCC(=O)O)C(=O)N[C@@H](CC(C)C)C(=O)N[C@H](C(=O)NCC(=O)N[C@H](C(=O)N[C@H](C(=O)N[C@@H](CS)C(=O)N[C@@H](Cc1ccccc1)C(=O)N1CCC[C@H]1C(N)=O)C(C)C)[C@@H](C)O)[C@@H](C)O)C(C)C` [DP2-E1] (Ac-YRVKPACGELTGTVCFP-NH2), the “Binding to BTLA in words” value is recorded as “binds slightly tighter than P0-E1, however weaker than DP2”.

The experiment is the same for the next values; noted with them: value as stated in running text.
Molecule `CC(=O)N[C@@H](Cc1ccc(O)cc1)C(=O)N[C@@H](CCCNC(=N)N)C(=O)N[C@H](C(=O)N[C@@H](CCCCN)C(=O)N[C@@H](CCC(=O)O)C(=O)N[C@@H](C)C(=O)N[C@@H](CS)C(=O)NCC(=O)N[C@@H](CCC(=O)O)C(=O)N[C@@H](CC(C)C)C(=O)N[C@H](C(=O)NCC(=O)N[C@H](C(=O)N[C@H](C(=O)N[C@@H](CS)C(=O)N[C@@H](CCC(=O)O)C(=O)N1CCC[C@H]1C(N)=O)C(C)C)[C@@H](C)O)[C@@H](C)O)C(C)C` [P0-E1] (Ac-YRVKEACGELTGTVCEP-NH2) showed a Kd of 9 mM.

The target in another experiment is T2, recombinant BTLA-Fc protein (B and T …). Nature of the experiment: SPR; Biacore T100, CM5 chip; BTLA-Fc coupled by EDC/NHS; peptides injected at 30 µL/min in PBS with 2% DMSO; static (fast dissociation) or kinetic (slow dissociation) model. The settings on record: both partners purified.
As to B1, the dissociation constant (Kd) is 1.75 mM. Take Ac-ESCPKCSPGYRVKEACGELTGTVCEP-NH2 (cysteine pairing not given here) [P0-E2]: the Kd amounted to 0.0941 mM.

In the case of Ac-YRVKEACGELTGTVCEP-NH2 (cysteine pairing not given here) [P0-E1], the Kd is 9.93 mM. B2: the Kd is 3.04 mM.

Consider B3, for which the Kd stood at 1.46e-06 mM.
